Patent EP4324461A1, “(E)-N-CINAMOYLAMINOALKANOLES WITH MELANOGENESIS INHIBITORY ACTIVITY” (UNIWERSYTET JAGIELLONSKI, priority 2022, dated 2024)

How the values were obtained:
[1] = system: E. coli WP2; test: Ames microplate test, E. coli WP2;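 further: bacteria treated 90 min at 37 °C in 24-well plates, then indicator medium dispensed to 384-well plates and incubated 48 h before yellow-well counting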
Description: (§2) The study used the Ames microplate test (Ames MPF™ Penta 2 by Xenometrix, Allschwil, Switzerland). Growth medium, exposure medium, indicator medium, positive controls, hepatic microsomal fraction, NADP, glucose-6-phosphate, Salmonella typhimurium and Escherichia coli strains were components of the purchased experimental kit. Bacteria were grown overnight in growth medium. They were then exposed to the test compound at the appropriate concentration in exposure medium without or with the rat microsomal fraction S9 in 24-well plates for 90 min at 37 °C with shaking. Then, indicator medium was added to the wells and pipetted into 384-well plates, which were incubated for 48 hours at 37 °C without shaking. Results were assessed by counting the wells in which the medium turned yellow for each experimental condition.

[2] = system: Hepatocarcinoma HepG2; test: Safety, MTT test in HepG2; type: cell-based; conditions: 48 hours
Description: In order to test the safety of the compounds, both normal human cells were used: keratinocytes (HaCaT), fibroblasts (BJ), primary melanocytes that occur in the skin, as well as human cancer cells: the hepatocarcinoma line HepG2 and the neuroblastoma line SH-SY5Y, which are considered a model for the assessment of hepatocytotoxicity and neurocytotoxicity. The concentrations of the tested compounds in the range of 250-100 µM were used in the studies. The cell lines used in the research were purchased from the American Type Culture Collection (ATCC) and were cultured in media recommended by the manufacturer with the addition of FBS and antibiotics in an incubator ensuring appropriate culture conditions, i.e. humidity, temperature and CO2 concentration. Cells were seeded into multiwell plates and incubated with the test compounds for 48 hours. After this time, MTT and LDH tests were performed to assess cell viability. The MTT test is based on the ability to transform the substrate: [3-(4,5-dimethyl-2-thiazolyl)-2,5-diphenyl-2H-tetrazolium bromide into a colored product only by living cells. The absorbance at 570 nm, which corresponds to the absorption maximum for the product, is directly proportional to cell viability. The LDH test is based on testing the activity of the enzyme lactate dehydrogenase in the culture medium, which is released from cells as a result of damage to the cell membrane, e.g. as a result of cell death. Triton X-100 was used as a positive control in the test. The determination is colorimetric, the substrate is transformed by the released enzyme into a colored product, an increase in absorbance indicates a larger amount of the released enzyme, and thus confirms greater damage to cell membranes. Tables 7 and 8 present the results obtained, which correspond to the viability of cells incubated with the compounds in relation to the viability of cells constituting a control sample, i.e. incubated with the solvent (DMSO) at the same concentration as in the case of the groups tested in the MTT test or in relation to the results obtained for the Triton X-100 positive control in the LDH test. They indicate that the compounds are safe at the concentrations tested. Table 7. Viability of tested normal human cell lines: keratinocytes (HaCaT), fibroblasts (BJ) and primary melanocytes after incubation with the tested compounds - determination in the MTT test (% of solvent control ± SD) and LDH (percentage of positive control - Triton X-100.

[3] = system: S. typhimurium TA1535; test: Ames microplate test, TA1535;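 further: bacteria exposed to compound 90 min at 37 °C, then kept 48 h at 37 °C with indicator medium in 384-well plates, scoring wells that turned yellow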
Description: as §2

[4] = system: reconstructed human epidermis containing melanocytes MelanoDerm™ MEL-300-B; test: Melanogenesis inhibition in reconstructed human epidermis containing melanocytes (MelanoDerm); type: cell-based; conditions: 14 days; for Melanin content [% control, mean ± SD]: 7 applications; for Viability [% control, mean ± SD]: MTT
Description: (§1) The research was carried out on reconstructed human epidermis containing melanocytes MelanoDerm™ MEL-300-B from MatTek (Bratislava, Slovakia). The ratio of keratinocytes to melanocytes in the epidermis used is 10:1. Only medium purchased from the same manufacturer (EPI-100-NMM-113) was used to culture the epidermis during the experiments. Once the epidermis was obtained, it was transferred to 12-well plates containing 5 mL of medium/well. Plates were used to enable proper contact of the lower parts of the inserts with the substrate (so-called hanging-top plate). Solutions of the compounds were prepared immediately before their application. The solutions were applied to the inserts using a positive displacement pipette and then distributed using a sterile glass bulb headed Pasteur pipette. The application was repeated every 48 hours, a total of 7 applications were performed. Before the next application, each insert was rinsed with sterile DPBS and dried with a sterile cotton buds. The application was also accompanied by a change of the medium. […] The epidermis was cultured in an incubator ensuring appropriate humidity, temperature (37 °C) and CO2 concentration (5%).
The experiment was conducted for 14 days. After this time, the inserts were rinsed with DPBS and dried with a cotton swab. For the selected pool of inserts, tissue viability was assessed using the MTT (Thiazolyl Blue Tetrazolium bromide) test, the remaining ones were used to determine the amount of melanin. To assess viability, the inserts were transferred to 24-well plate containing 0.3 mL of DMEM medium with 1 mg/mL MTT and incubated for 3 hours in an incubator. The epidermis was then placed in 2 mL of isopropanol and the resulting formazan was extracted for 2 hours at room temperature. The absorbance of the samples was measured at 570 nm in a microplate reader and correlated with the absorbance of the control by the formula: % Viability = [OD (570 nm) for test compound/OD (570 nm) for control] × 100. To determine the amount of melanin, the inserts were incubated in 5% sodium bicarbonate for 30 min, then dried and placed in 0.5 mL of Solvable™ reagent, which caused complete lysis of the epidermis. After heating at 95 °C, the absorbance of the samples was measured at 405 nm in a microplate reader. On this basis, the reduction in the amount of melanin was calculated in relation to the control sample. The absorbance results were also correlated with a standard curve for synthetic melanin. […] Table 5. Viability and melanin content in the MelanoDerm epidermis after application of the tested samples, calculated on the basis of absorbance measurements.
as §1, with “Only media” for “Only medium”, “cotton bud.” for “cotton buds.”
The experiment was conducted for 14 days. After this time, the inserts were rinsed with DPBS and dried with a cotton bud. […]

SMILES | Increase in the number of yellow wells compared to the reference level ([1]; 0.5 mM, without S9) | Increase in the number of yellow wells compared to the reference level ([1]; 1.0 mM, without S9) | Increase in the number of yellow wells compared to the reference level ([1]; 2.0 mM, without S9) | Hepatocarcinoma HepG2 MTT ([2]; 100 µM) | Hepatocarcinoma HepG2 MTT ([2]; 150 µM) | Hepatocarcinoma HepG2 MTT ([2]; 200 µM) | Hepatocarcinoma HepG2 MTT ([2]; 250 µM) | Increase in the number of yellow wells compared to the reference level ([3]; 0.5 mM, without S9) | Increase in the number of yellow wells compared to the reference level ([3]; 1.0 mM, without S9) | Increase in the number of yellow wells compared to the reference level ([3]; 2.0 mM, without S9) | Increase in the number of yellow wells compared to the reference level ([1]; 0.5 mM, +S9) | Increase in the number of yellow wells compared to the reference level ([1]; 1.0 mM, +S9) | Increase in the number of yellow wells compared to the reference level ([1]; 2.0 mM, +S9) | Increase in the number of yellow wells compared to the reference level ([3]; 0.5 mM, +S9) | Increase in the number of yellow wells compared to the reference level ([3]; 1.0 mM, +S9) | Increase in the number of yellow wells compared to the reference level ([3]; 2.0 mM, +S9) | Melanin content [% control, mean ± SD] ([4]; 1.0% in 50% PEG (10 µL)) [% control] | Viability [% control, mean ± SD] ([4]; 1.0% in 50% PEG (10 µL)) [% control] | also measured
Cc1ccc(/C=C/C(=O)NCCCCCO)cc1 [H-415/21, (2E)-N-(5-hydroxypentyl)-3-(4-methylphenyl)prop-2-enamide] | 0.64 | 0.40 | 0.95 | 100.32±1.75 % of solvent control | 99.54±5.74 % of solvent control | 100.53±3.98 % of solvent control | 98.90±4.21 % of solvent control | 0.21 | 0.41 | 0.10 |  |  |  |  |  |  |  |  | 
O=C(/C=C/c1ccc(Cl)cc1)NCCCCCO [Compound A-111, (2E)-3-(4-chlorophenyl)-N-(5-hydroxypentyl)prop-2-enamide] | 1.46 | 1.10 | 1.10 | 101.10±6.01 % of solvent control | 97.87±3.27 % of solvent control | 98.19±3.27 % of solvent control | 96.27±2.57 % of solvent control | 0.55 | 0.18 | 1.65 | 0.62 | 0.71 | 0.98 | 0.58 | 0.35 | 0.23 | 94.95±3.57 | 101.45±6.45 | Melanin content [% control, mean ± SD] ([4]; 1.0% in 50% PEG (25 µL)): 81.23±6.53 % control; Viability [% control, mean ± SD] ([4]; 1.0% in 50% PEG (25 µL)): 85.67±7.25 % control; Melanin content [% control, mean ± SD] ([4]; 2.0% in 50% PEG (25 µL)): 67.26±9.18 % control; Viability [% control, mean ± SD] ([4]; 2.0% in 50% PEG (25 µL)): 106.64±7.78 % control
O=C(/C=C/c1ccc(Cl)cc1)NCCO [H-427/21, (2E)-3-(4-chlorophenyl)-N-(2-hydroxyethyl)prop-2-enamide] |  |  |  | 99.61±4.37 % of solvent control | 98.44±3.94 % of solvent control | 97.07±4.00 % of solvent control | 100.08±10.58 % of solvent control |  |  |  |  |  |  |  |  |  |  |  | 
O=C(/C=C/c1ccccc1)NCCCCCCO [H-425/21, (E)-N-(6-hydroxyhexyl)cinnamic acid amide] | 0.17 | 0.67 | 1.00 |  |  |  |  | 1.04 | 0.59 | 0.45 | 0.75 | 0.83 | 0.75 | 0.54 | 0.40 | 0.94 | 102.98±4.25 | 87.16±6.30 | 
O=C(/C=C/c1ccc(Cl)cc1)NCCCO [H-330/21, (2E)-3-(4-chlorophenyl)-N-(3-hydroxypropyl)prop-2-enamide] |  |  |  | 100.73±4.51 % of solvent control | 100.44±3.93 % of solvent control | 100.86±6.41 % of solvent control | 93.16±1.71 % of solvent control |  |  |  |  |  |  |  |  |  |  |  | 
O=C(/C=C/c1ccccc1)NCCCCCO [Compound A-133, (2E)-N-(5-hydroxypentyl)-3-phenylprop-2-enamide] | 0.73 | 0.37 | 1.10 | 104.96±7.60 % of solvent control | 100.66±7.39 % of solvent control | 99.09±1.60 % of solvent control | 98.92±2.34 % of solvent control | 0.92 | 0.55 | 1.10 | 0.27 | 0.44 | 0.53 | 0.47 | 0.23 | 0.35 | 98.62±9.47 | 101.22±6.52 | 
